Experimental data reported in patent US12606541B2, “PPARg modulators and methods of use” (Eisai R&D Management Co., Ltd., priority 2020, dated 2026).

Columns and labels:
His6-TEV-PPARγ-(234-505) = biological target: T1, His6-TEV-PPARγ-(234-505) (Homo sapiens, UniProt P37231); test: TR-FRET Assay to Measure Co-R Peptide Recruitment to PPARγ; type: biochemical; conditions: Co-R peptide (SMRT-ID2) recruitment; top final concentration 20 μM; read-out: TR-FRET i-Ag; AC50
T1 construct: The His6-TEV-PPARγ-(234-505) protein for assay was expressed and purified; TEV cleavage site (N); made in house
T1 sequence (P37231 234-505): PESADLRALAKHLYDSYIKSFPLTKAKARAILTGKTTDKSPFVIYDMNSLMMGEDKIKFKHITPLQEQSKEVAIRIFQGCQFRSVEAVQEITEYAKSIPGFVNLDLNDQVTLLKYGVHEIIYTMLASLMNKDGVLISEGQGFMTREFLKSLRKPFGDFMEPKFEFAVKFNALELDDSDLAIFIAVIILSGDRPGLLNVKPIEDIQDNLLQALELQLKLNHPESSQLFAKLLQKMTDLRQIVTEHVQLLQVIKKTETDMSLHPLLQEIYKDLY
Procedure, shortened: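 His-tagged PPARγ (or controls) was preincubated with compound for 20 minutes at room temperature, then 5 nM anti-His terbium antibody and 200 nM FITC-labeled SMRT-ID2 corepressor peptide (final) were added for a further hour. TR-FRET signal was normalized to percent response using 500 nM T0070907 and DMSO controls.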

UM-UC-9 engineered cells = test: Cell proliferation / short-term viability assay, CellTiter-Glo 144 h; type: cell-based, human; conditions: Homo sapiens, UM-UC-9, 144 h, read-out: CTGlo 144 h UMUC9.5, G150
Procedure, shortened: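 UM-UC-9 engineered assay-ready cells seeded at 500 cells/well in high-glucose DMEM/10% FBS, treated from dose-response plates, grown at 37° C, 5% CO2. CellTiter-Glo 2.0 luminescence read on day 7, with a day-0 pretreatment plate as T0 reference and DMSO wells as negative control.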

Row | SMILES | AC50 (His6-TEV-PPARγ-(234-505)) [nM] | IC50 (UM-UC-9 engineered cells) [nM]
1 | COc1cc(-c2cc(C(=O)N3[C@@H]4CC[C@H]3C[C@H](C(=O)NCc3ccc5[nH]nc(F)c5c3)C4)n[nH]2)c(F)cn1 [Example 258, (1R,3S,5S)—N-[(3-fluoro-1H-indazol-5-yl)methyl]-8-[5-(5-fluoro-2-methoxypyridin-4-yl)-1H-pyrazole-3-carbonyl]-8-azabicyclo[3.2.1]octane-3-carboxamide] | 17 | 20
2 | COc1cc(-c2cc(C(=O)N3CCC(C(=O)Nc4cnc(C)c(C)n4)CC3)n[nH]2)c(Cl)cn1 [Example 260, 1-(5-(5-chloro-2-methoxypyridin-4-yl)-1H-pyrazole-3-carbonyl)-N-(5,6-dimethylpyrazin-2-yl)piperidine-4-carboxamide] | 970 | 4030
3 | COc1cc(-c2cc(C(=O)N3CCC(C(=O)Nc4cccc5[nH]ccc45)CC3)n[nH]2)c(Cl)cn1 [Example 261, 1-(5-(5-chloro-2-methoxypyridin-4-yl)-1H-pyrazole-3-carbonyl)-N-(1H-indol-4-yl)piperidine-4-carboxamide] | 78.4 | 490
4 | Cc1cc(-c2cc(C(=O)N3CCC(C(=O)NCc4cccc(Cl)c4)CC3)n[nH]2)c(Cl)cn1 [Example 262, 1-[5-(5-chloro-2-methylpyridin-4-yl)-1H-pyrazole-3-carbonyl]-N-[(3-chlorophenyl)methyl]piperidine-4-carboxamide] | 29.2 | 332
5 | COc1cc(-c2cc(C(=O)N3CCC(C(=O)NC4CCC(C)(O)CC4)CC3)n[nH]2)c(Cl)cn1 (stereo not drawn) [Example 264-A] | 658 | 4890
6 | COc1cc(-c2cc(C(=O)N3CCC(C(=O)NC4c5ccccc5OC4C)CC3)n[nH]2)c(Cl)cn1 (stereo not drawn) [Example 265, 1-(5-(5-chloro-2-methoxypyridin-4-yl)-1H-pyrazole-3-carbonyl)-N-(2-methyl-2,3-dihydrobenzofuran-3-yl)piperidine-4-carboxamide] | 87.7 | 458
7 | Cc1cc(-c2cc(C(=O)N3CCC(C(=O)NCc4cccc(Cl)c4)CC3)n[nH]2)c(F)cn1 [Example 267, N-[(3-chlorophenyl)methyl]-1-[5-(5-fluoro-2-methylpyridin-4-yl)-1H-pyrazole-3-carbonyl]piperidine-4-carboxamide] | 14.2 | 104
8 | Cc1cc(-c2cc(C(=O)N3[C@@H]4CC[C@H]3C[C@H](C(=O)NCc3cccc(Cl)c3)C4)n[nH]2)c(F)cn1 [Example 268, (1R,3S,5S)—N-[(3-chlorophenyl)methyl]-8-[5-(5-fluoro-2-methylpyridin-4-yl)-1H-pyrazole-3-carbonyl]-8-azabicyclo[3.2.1]octane-3-carboxamide] | 7 | 36.5
9 | Cc1cc(-c2cc(C(=O)N3CCC(C(=O)NCc4ccc5[nH]nc(F)c5c4)CC3)n[nH]2)c(F)cn1 [Example 269, N-[(3-fluoro-1H-indazol-5-yl)methyl]-1-[5-(5-fluoro-2-methylpyridin-4-yl)-1H-pyrazole-3-carbonyl]piperidine-4-carboxamide] | 12 | 160
10 | CCc1cc(-c2cc(C(=O)N3CCC(C(=O)NCc4cccc(Cl)c4)CC3)n[nH]2)c(Cl)cn1 [Example 270, 1-[5-(5-chloro-2-ethylpyridin-4-yl)-1H-pyrazole-3-carbonyl]-N-[(3-chlorophenyl)methyl]piperidine-4-carboxamide] | 23.4 | 306
11 | Cc1cc(-c2cc(C(=O)N3CCC(C(=O)NCc4ccc5[nH]ccc5c4)CC3)n[nH]2)c(F)cn1 [Example 271, 1-[5-(5-fluoro-2-methylpyridin-4-yl)-1H-pyrazole-3-carbonyl]-N-(1H-indol-5-ylmethyl)piperidine-4-carboxamide] | 6.1 | 30.3
12 | COc1cc(-c2cc(C(=O)N3CCC(C(=O)NCc4ccc5[nH]c(C)c(C)c5c4)CC3)n[nH]2)c(F)cn1 [Example 272, N-[(2,3-dimethyl-1H-indol-5-yl)methyl]-1-[5-(5-fluoro-2-methoxypyridin-4-yl)-1H-pyrazole-3-carbonyl]piperidine-4-carboxamide] | 9 | 111
